Assay results from patent US20020025929A1, “METHOD OF BUILDING AND MAINTAINING BONE” (priority 1997, published 2002).

Key:
[1] = tested on: osteopenic ovariectomized rats; assay: Longitudinal pQCT of proximal tibial metaphysis; assay type: in vivo, Sprague-Dawley rats; conditions: OVX rats, FIG. 1
Procedure: (§1) The metaphysis of proximal tibiae were scanned longitudinally from baseline, using a 960A pQCT loaded with Dichte software version 5.2 (Norland/Stratec, Ft. Atkinson, Wis.), using the technique described by Sato et al., —1995, JPET 272:1252-1259; Sato 1995, Bone 17:157S-162S). Volumetric bone mineral density (BMD, mg/cm3), cross-sectional area (X-Area), voxel number, and mineral content (BMC, mg) were quantitated for the whole cross-section of the metaphysis. Sites of excised bones were analyzed at higher resolution, using a micro-CT (Stratec). Specifically, distal femora (below the condyles, see Sato et al. 1995) and L-3 vertebra (mid-cross section, Helterbrand et al., 1997, Bone 21:401-409) were analyzed using voxel dimensions of 50 ×50×1000 μm and 70×70×1000 μm, respectively.
In a second study, virgin Sprague-Dawley rats were bilaterally ovariectomized (except for the sham-operated group), the ovariectomized animals randomized, and allowed to lose bone for one month prior to treatment in the manner described above. The animal groups, each containing 7-8 animals, included sham-operated animals (SHAM); bilaterally ovariectomized animals (OVX); bilaterally ovariectomized animals treated with 0.01, 0.3 or 1 mg/kg/day of compound 1a, respectively, for three months; bilaterally ovariectomized animals treated subcutaneously with PTH(1-34) at a dose of 10 μg/kg/day for three months; bilaterally ovariectomized animals treated subcutaneously with PTH(1-34) at a dose of 10 μg/kg/day and orally with compound 1a at a dose of 0.3 mg/kg/day, both compounds administered for three months; bilaterally ovariectomized animals treated subcutaneously with PTH(1-34) at a dose of 10 μg/kg/day for forty-five days followed by gavage administration of vehicle for forty-five days; bilaterally ovariectomized animals treated subcutaneously with PTH(1-34) at a dose of 10 μg/kg/day for forty-five days followed by oral administration of only compound 1a at a dose of 0.3 mg/kg/day for forty-five days; and bilaterally ovariectomized animals treated with 17α-ethynyl estradiol administered orally at a dose of 0.1 mg/kg/day.
In the second study, the proximal tibial metaphysis was scanned longitudinally by pQCT for rats from baseline.
Treatment, as indicated, was initiated after 1 month postovariectomy and continued for the following 3 months. Specifically, administration of compound 1a alone(closed triangles), PTH (1-34) alone (open triangles), in combination (closed squares), or in sequence (closed diamonds) were compared to OVX (open circles), Sham (closed circles), and estrogen (EE2, open diamonds) controls.

[2] = tested on: osteopenic rats; assay: Micro-CT of distal femur metaphysis; assay type: in vivo, Sprague-Dawley rats; conditions: continuous treatment, 1a 0.01-1 mg/kg, 17α-ethynyl estradiol 0.1 mg/kg, PTH (1-34), 1a 0.3 mg/kg with PTH (1-34), FIG. 2
Procedure: as §1
In a second study, virgin Sprague-Dawley rats were bilaterally ovariectomized (except for the sham-operated group), the ovariectomized animals randomized, and allowed to lose bone for one month prior to treatment in the manner described above. […]

[3] = tested on: ovariectomized rats; assay: Uterine wet weight of ovariectomized rats; assay type: in vivo, Sprague-Dawley female rats; conditions: OVX rats; compound 1a 0.003-3 mg/kg; 17α-ethynyl estradiol 0.1 mg/kg
Procedure: Following treatment with the test compounds, the rats were anesthetized and subjected to cardiac puncture and euthanized by CO2 inhalation. Uteri were removed and wet weight were determined on a Mettler balance to evaluate ovariectomy and efficacy of treatment with estrogen. Blood samples were allowed to clot at 4° C. for 2 hr before centrifugation at 2,000 g for 10 min. Serum were collected and stored at −70° C. before analysis. Serum cholesterol was assayed using a high performance calorimetric assay (Boehringer Mannheim Biochemicals, Indianapolis, Ind.). Tibia and femora were removed, cleaned of soft-tissue, fixed in 50% ethanol/ saline, and stored at 4° C. Vertebra L1-6 were removed and analyzed by QCT, histomorphometry, and biomechanics.
In the first study, six-month old virgin Sprague-Dawley female rats weighing about 300 g each were maintained on a 12 hr light/12 hr dark cycle at 22° C. with ad lib access to food (TD 89222 diet containing 0.5% calcium and 0.4% phosphorus, Teklad, Madison, Wis., USA), Except for sham-operated control animals, bilateral ovariectomies were performed on the test animals. In the case of the sham-operated animals, the surgical ovariectomization technique was followed, but the ovaries were left intact to provide a control for assessing any effect which might be due to the surgical trauma. […]

[4] = treated continuously 3 months (90 days), at termination, 1a 0.01, 0.3, 1.0 mg/kg, EE2 0.1 mg/kg, PTH (1-34) 10 μg/kg

Row | Molecule | volumetric BMD of proximal tibial metaphysis (pQCT) [1, 4] | BMD of distal femur metaphysis (micro-CT) [2] | uterine wet weight [3] | volumetric BMD of proximal tibial metaphysis (pQCT) ([1]; PTH (1-34) 45 days then discontinued or switched to compound 1a, at termination) | volumetric BMD of proximal tibial metaphysis (pQCT) ([1]; after PTH (1-34) for 45 days)
1 | COc1ccc(-c2sc3cc(O)ccc3c2Oc2ccc(OCCN3CCCCC3)cc2)cc1 [Compound 1a, 6-hydroxy-2-(4-methoxyphenyl)-3-[4-(2-piperidin-1-ylethoxy)phenoxy]-benzo[b]thiophene] | prevented further bone loss and had BMD significantly greater than OVX at termination | prevented further bone loss | – | – | –
2 | C#C[C@]1(O)CC[C@H]2[C@@H]3CCc4cc(O)ccc4[C@H]3CC[C@@]21C [EE2, 17α-ethynyl estradiol] | BMD significantly greater than OVX at termination | prevented further bone loss | increased uterine weight above OVX to Sham levels | – | –
3 | PTH: N-terminal 1-34 fragment of human parathyroid hormone, hPTH(1-34, Sequence ID No. 3); PTH/vehicle = 45 days PTH then vehicle | – | increased BMD was observed to levels significantly beyond OVX, Sham, and baseline levels | – | BMD decreased to significantly below Sham | regained BMD to Sham levels
